According to patent US20040220249A1, “Prevention of surgical adhesions using selective COX-2 inhibitors” (Children's Medical Center Corporation, priority 2003, published 2004):

Columns and labels:
[1] = test system: endothelium (CD31/PECAM-1) of granulation tissue; assay: Microvessel density of granulation tissue surrounding the silicone patch (CD31 immunostaining, image analysis); format: in vivo, mice (C57BL/6); conditions: day 10; CD31-stained area as proportion of total area; mean ± SEM; control 6.4±0.6
Description: Silicone patches and abdominal wall were fixed at 4 degrees Celsius in 10% formalin overnight and washed with phosphate buffered saline. The specimens were then embedded in paraffin and 5 micron sections were cut. Endothelial cells were identified by antibody staining against the endothelial cell surface antigen CD31 (PECAM-1) and a diaminobenzidine chromogen (BD Biosciences Pharmingen, San Diego, Calif.). After deparaffinization and rehydration, sections were incubated with proteinase K (Roche, Basel, Switzerland) for 30 min at 37° C. Non-specific binding sites were blocked for 30 min at room temperature with TNB blocking buffer (NEN Life Sciences, Boston, Mass.). Primary CD31 antiserum (Pharmingen) was added to the sections overnight at 4° C. Slides were washed twice with phosphate buffered saline and secondary goat anti-mouse IgG antibody (Vector Laboratories, Burlingame, Calif.) was then added for 30 min at room temperature. After again washing twice with PBS the slides were incubated with streptavidin alkaline phosphatase solution (1:100) (Perkin-Elmer Life Sciences, Boston, Mass.) for 30 min at room temperature followed by biotinyl tyramide amplification dilutent (1:50) (Perkin-Elmer Life Sciences) for 10 min. After repeat incubation with alkaline phosphatase solution (1:100), for 30 min at room temperature, the chromagen, Vector Novar substrate kit (Vector Laboratories) was added. Slides were lightly counterstained with hematoxylin for imaging.
Sections were taken from the abdominal wall, patch, and lesions at sacrifice on day 10. To quantitate vessel density, CD31 immunostained sections underwent digital image analysis using a Nikon Eclipse TE300 inverting photomicroscope with an attached Spot RT (Diagnostic Instruments Inc.) video camera linked to a personal computer. Images were imported directly to the image analysis program IP Lab (Scanalytics Inc., Fairfax, Va.). Sequential images were grabbed at 200× for the […] sections without overlapping. To calculate the volume fraction of stained regions, a color threshold was chosen for each image that distinguished between the stained areas and background. The proportion of the selected color was calculated as a percentage of total area and used as a measure of vessel density. Sections from 3 different mice for each of the study groups were examined and vascularization was scanned and quantified in 5 representative fields per section.

[2] = test system: intra-abdominal adhesion formation; assay: Intra-abdominal adhesion model (laparotomy, cecal abrasion, silicone patch), adhesion score; format: in vivo, mice (C57BL/6); conditions: for intra-abdominal adhesion score (total, 0-16): 10 days after surgery, oral treatment for 10 days from day of surgery, mean +/- SEM, control 13.6+/-0.49; for decrease of intra-abdominal adhesion formation: FIG. 2, versus control mice; for intra-abdominal adhesion score (total, 0-16), durability: treated for 10 days, observed an additional 25 days before sacrifice (day 35), control 13.4+/-1.0
Description: Seven to eight week-old male C57BL/6 mice (Jackson Laboratories, Bar Harbor, Me.) were housed five animals to a cage in a barrier room. Mice were acclimated to their environment for at least 72 hours prior to the initiation of each experiment and allowed food and water ad libitum. Animal protocols complied with the NIH Animal Research Advisory Committee guidelines and were approved by the Children's Hospital Institutional Animal Care and Use Committee. A standard adhesion model was performed as previously described (Chiang 2000). Specifically, a 5.0 mm×5.0 mm square piece of sterile silicone (Dow Corning, Midland, Mich.) was secured intra-abdominally to the right abdominal wall, lateral to the epigastric vessels, with two 7-0 proline sutures under isoflurane anesthesia. The cecum then was gently rubbed with two cotton swabs to promote adhesion formation.
After recovering from anesthesia, groups of mice were treated with either oral methylcellulose alone (100 μl, control) or an experimental drug mixed in 100 μl methylcellulose beginning on the day of surgery for 10 days. […] Mice treated with COX-2 selective inhibitors received either celecoxib (68 mg/kg orally twice a day) or rofecoxib (40 mg/kg orally once a day) (Laudanno 2001).
Ten and 35 days after surgery, mice were euthanized and adhesion formation over the silicone patch was measured by two blinded individuals based on a previously described scoring system (Chiang S, et al. J Ped Surg. 2000, 35, 189-196). The tenacity, type, and extent of adhesions to the patch, as well as the extent of adhesions to the cecum were graded on a scale of 0 to 4. The total adhesion score was the sum of the four individual scores (see table 1, below). A minimum score was 0 and the maximum score was 16. Tenacity was rated as none (0), adhesions fell apart (1), lysed with traction (2), lysed with blunt dissection (3), lysed with sharp dissection (4). Type was scored as none (0), filmy (1), mildly dense (2), moderately dense (3), very dense (4). Extent was measured as the percent of the patch covered by adhesion: 0% (0), <25% (1), 25-50% (2), 50-75% (3), >75% (4). Cecal adhesions were graded as none (0), adhesions fell apart (1), lysed with traction (2), lysed with blunt dissection (3), lysed with sharp dissection (4).

adhesions = conditions: cited from earlier work

| SMILES | microvessel density of granulation tissue surrounding the silicone patch [1] | intra-abdominal adhesion score (total, 0-16) [2] | decrease of intra-abdominal adhesion formation [2] | intra-abdominal adhesion score (total, 0-16), durability [2] | macroscopic adhesion formation over the silicone patch (photograph) ([2]; 10 days after laparotomy, cecal abrasions and silicone patch placement, FIG. 1) | side-effects (adhesions; literature) | inhibition of adhesions (adhesions; murine model (Chiang 2001)) |
| --- | --- | --- | --- | --- | --- | --- | --- |
| Cc1ccc(-c2cc(C(F)(F)F)nn2-c2ccc(S(N)(=O)=O)cc2)cc1 [celecoxib] | 3.8±0.8 | 1.36+/−0.5 | 74% | 1.5+/−0.9 | – | – | – |
| CC(=O)Oc1ccccc1C(=O)O [aspirin] | 13.3±1.0 | 13.8+/−0.4 | no effect | 12.2+/−1.2 | dense adhesion formation over the silicone patch | – | – |
| CS(=O)(=O)c1ccc(C2=C(c3ccccc3)C(=O)OC2)cc1 [rofecoxib] | 7.9±0.6 | 3.6+/−1.1 | 91% | – | – | – | – |
| CC(C)Cc1ccc(C(C)C(=O)O)cc1 (stereo not shown) [ibuprophen] | 9.9±1.1 | 7.8+/−1.4 | – | – | – | – | – |
| COc1ccc2cc([C@H](C)C(=O)O)ccc2c1 [naproxen] | – | 8.4+/−2.2 | – | – | – | – | – |
| COc1ccc2c(c1)c(CC(=O)O)c(C)n2C(=O)c1ccc(Cl)cc1 [indomethacin] | 11.3±1.5 | 7.3+/−1.7 | – | – | – | – | – |
| CO[C@@H]1[C@H](OC(=O)NC(=O)CCl)CC[C@]2(CO2)[C@H]1[C@@]1(C)O[C@@H]1CC=C(C)C [TNP-470] | – | – | – | – | – | absence of healing of abdominal wounds | inhibit adhesions |
